# In patent publication US6525059B1, “Substituted pyrazoles as p38 kinase inhibitors” (G. D. Searle & Company, priority 1998, dated 2003):
# Values joined by “and” are separate entries in the source; they are usually repeats but may differ in a detail not shown here. Equal entries are not always repeated. Structures can show the parent of a compound that is named as a salt. Where two headings read alike, the source gives them in different places.
# Assays:
# human TNF = experiment: TNF inhibition: human whole blood assay; type: cell-based; conditions: Homo sapiens, LPS, read-out: TNF Inhibition-Human Whole Blood Assay
# TNF-α = experiment: Rat assay: LPS-challenged rats, serum TNF-α by ELISA; type: in vivo; conditions: Rattus norvegicus, po; for inhibition in vivo at 3 mg/kg: Table 8, dose 3.0 mg/kg; for inhibition in vivo at 3 mg/kg / inhibition in vivo at 1 mg/kg / inhibition in vivo at 5 mg/kg: read-out: Rat LPS Assay % Inhibition
# [1] = target: T1, human GST-p38 kinase alpha (Homo sapiens, UniProt Q16539); experiment: p38 kinase in vitro assay, second format, phosphorylation of EGFRP with 33P-ATP; type: biochemical; conditions: read-out: p38α Kinase Assay IC50
# T1 construct: The coding region of the human p38a cDNA was obtained by PCR-amplification from RNA isolated from the human monocyte cell line THP.1; made in house; host or cells: E. coli DH10B
# T1 sequence (Q16539 whole entry): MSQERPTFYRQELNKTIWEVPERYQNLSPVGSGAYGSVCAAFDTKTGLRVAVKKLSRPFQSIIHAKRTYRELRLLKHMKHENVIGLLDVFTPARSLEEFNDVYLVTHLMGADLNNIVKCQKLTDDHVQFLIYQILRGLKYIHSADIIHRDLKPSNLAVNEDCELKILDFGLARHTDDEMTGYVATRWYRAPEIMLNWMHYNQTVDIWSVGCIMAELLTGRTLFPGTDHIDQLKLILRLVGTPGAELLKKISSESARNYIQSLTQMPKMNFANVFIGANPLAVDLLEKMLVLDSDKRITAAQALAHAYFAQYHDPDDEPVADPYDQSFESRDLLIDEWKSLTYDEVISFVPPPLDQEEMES
# Procedure, shortened: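 Activated human GST-p38α (pre-activated with GST-MKK6, 1 h, 30 °C) phosphorylates EGFR 21-mer peptide (200 μM) with 50 μM ATP plus γ-33P-ATP, pH 7.5, 60 min at room temperature. Unreacted ATP removed by AG 1×8 resin; supernatant scintillation-counted.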
Compound,"IC50 (human TNF; Table 9, human whole blood)","inhibition in vivo at 20 mg/kg (TNF-α; Table 9, dose 20 mg/kg)","IC50 ([1]; Table 9, 10% DMSO)","inhibition in vivo at 5 mg/kg (TNF-α; Table 9, dose 5 mg/kg)",other results
"C#CCn1nc(N2CCNCC2)c(-c2ccncc2)c1-c1ccc(Cl)cc1 [Example A-318, 1-[5-(4-chlorophenyl)-4-(4-pyridinyl)-1-(2-propynyl)-1H-pyrazol-3-yl]piperazine, trihydrochloride monohydrate]",–,–,–,–,"IC50 (human TNF; Table 8, human whole blood): 167 nM; inhibition in vivo at 3 mg/kg (TNF-α): 54%; IC50 ([1]; Table 8, 10% DMSO): 580 nM and 370 nM and 600 nM"
"Clc1ccc(-c2[nH]nc(NC3CCNCC3)c2-c2ccncc2)cc1 [Example A-332, N-[5-(4-chlorophenyl)-4-(4-pyridinyl)-3H-pyrazol-3-yl]-4-piperidineamine, trihydrochloride, monohydrate]",–,–,–,–,"IC50 (human TNF; Table 8, human whole blood): 450 nM; inhibition in vivo at 1 mg/kg (TNF-α; Table 8, dose 1.0 mg/kg): 33%; inhibition in vivo at 3 mg/kg (TNF-α): 26%; inhibition in vivo at 5 mg/kg (TNF-α; Table 8, dose 5.0 mg/kg): 25%; inhibition in vivo at 10 mg/kg (TNF-α; Table 8, dose 10.0 mg/kg): -85%; IC50 ([1]; Table 8, 10% DMSO): 15 nM and < 100 nM"
"CN1CCC(Nc2n[nH]c(-c3ccc(Cl)cc3)c2-c2ccncc2)CC1 [Example A-334, N-[5-(4-chlorophenyl)-4-(4-pyridinyl)-1H-pyrazol-3-yl]-1-methyl-4-piperidinamine]",–,–,–,–,"IC50 (human TNF; Table 8, human whole blood): 220 nM; inhibition in vivo at 1 mg/kg (TNF-α; Table 8, dose 1.0 mg/kg): 36%; inhibition in vivo at 5 mg/kg (TNF-α; Table 8, dose 5.0 mg/kg): 57%; inhibition in vivo at 20 mg/kg (TNF-α; Table 8, dose 20.0 mg/kg): 95%; IC50 ([1]; Table 8, 10% DMSO): 70 nM"
"Fc1ccc(-c2n[nH]cc2-c2ccnc(NCC3CCNCC3)c2)cc1 [Example A-351, 4-[3-(4-fluorophenyl)-1H-pyrazol-4-yl]-N-(4-piperidinylmethyl)-2-pyridinamine]",490 nM,0%,270 nM,–,–
"CCN(CC)CC(Nc1cc(-c2c[nH]nc2-c2ccc(F)cc2)ccn1)c1ccccc1 (centres unmarked) [Example A-353, N2,N2-diethyl-N1-[4-[3-(4-fluorophenyl)-1H-pyrazol-4-yl]-2-pyridinyl]-1-phenyl-1,2-ethanediamine]",5300 nM,49%,37 nM,–,–
"CC(C)C[C@@H](CO)Nc1cc(-c2c[nH]nc2-c2ccc(F)cc2)ccn1 [Example A-354, (2S)-2-[[4-[3-(4-fluorophenyl)-1H-pyrazol-4-yl]-2-pyridinyl]amino]-4-methyl-1-pentanol]",25000 nM,0%,220 nM,–,–
"CC(C)C(CO)Nc1cc(-c2c[nH]nc2-c2ccc(F)cc2)ccn1 (centres unmarked) [Example A-355, 2-[[4-[3-(4-fluorophenyl)-1H-pyrazol-4-yl]-2-pyridinyl]amino]-3-methyl-1-butanol]",95 nM,–,50 nM,–,"inhibition in vivo at 26 mg/kg (TNF-α; Table 9, dose 26 mg/kg): 0%"
"CCOC(=O)N1CCC(Nc2cc(-c3c[nH]nc3-c3ccc(F)cc3)ccn2)CC1 [Example A-356, ethyl 4-[[4-[3-(4-fluorophenyl)-1H-pyrazol-4-yl]-2-pyridinyl]amino]-1-piperidinecarboxylate]",5300 nM,73%,< 10 nM,–,–
"Fc1ccc(-c2n[nH]c(N3CCC(N4CCCC4)CC3)c2-c2ccncc2)cc1 [Example A-357, 4-[3-(4-fluorophenyl)-5-(4-(1-pyrrolidinyl)-1-piperidinyl]-1H-pyrazol-4-yl]pyridine, trihydrochloride]",250 nM,74%,120 nM,–,–
"CCN1CCCCC1CCNc1cc(-c2c[nH]nc2-c2ccc(F)cc2)ccn1 (centres unmarked) [Example A-358, N-[2-(1-ethyl-2-piperidinyl)ethyl]-4-[3-(4-fluorophenyl)-1H-pyrazol-4-yl]-2-pyridinamine]",4000 nM,71%,230 nM,–,–
"CCN(CC)CCCC(C)Nc1[nH]nc(-c2ccc(F)cc2)c1-c1ccncc1 (centres unmarked) [Example A-359, N1,N1,-diethyl-N4-[5-(4-fluorophenyl)-4-(4-pyridinyl)-1H-pyrazol-3-yl]-1,4-pentanediamine]",1000 nM,70%,300 nM,–,–
"CN(C)C1CCN(c2[nH]nc(-c3ccc(F)cc3)c2-c2ccncc2)CC1 [Example A-360, 1-[5-(4-fluorophenyl)-4-(4-pyridinyl)-1H-pyrazol-3-yl]-N,N-dimethyl-4-piperidinamine, trihydrochloride]",500 nM,95%,60 nM,14%,"inhibition in vivo at 1 mg/kg (TNF-α; Table 9, dose 1 mg/kg): 0%"
"OC[C@@H](Nc1cc(-c2c[nH]nc2-c2ccc(F)cc2)ccn1)c1ccccc1 [Example A-362, (βS)-β-[[4-[3-(4-fluorophenyl)-1H-pyrazol-4-yl]-2-pyridinyl]amino]benzene ethanol]",5500 nM,0%,690 nM,–,–
"OC[C@H](Cc1ccccc1)Nc1cc(-c2c[nH]nc2-c2ccc(F)cc2)ccn1 [Example A-363, (βS)-β-[[4-[3-(4-fluorophenyl)-1H-pyrazol-4-yl]-2-pyridinyl]amino]benzene propanol]",25000 nM,6%,1500 nM,–,–
"CCN(CC)CCCNc1n[nH]c(-c2ccc(F)cc2)c1-c1ccncc1 [Example A-364, N,N-diethyl-N′-[5-(4-fluorophenyl)-4-(4-pyridinyl)-1H-pyrazol-3-yl]-1,3-propanediamine]",255 nM,79%,490 nM,–,–
"NC1CCN(c2[nH]nc(-c3ccc(F)cc3)c2-c2ccncc2)CC1 [Example A-365, 1-[5-(4-fluorophenyl)-4-(4-pyridinyl)-1H-pyrazol-3-yl]-4-piperidinamine, trihydrochloride]",57 nM,95%,32 nM,50%,"inhibition in vivo at 1 mg/kg (TNF-α; Table 9, dose 1 mg/kg): 12%"
"CCN(CC)CCCC(C)Nc1nccc(-c2c[nH]nc2-c2ccc(F)cc2)n1 (centres unmarked) [Example A-366, N1,N1-diethyl-N4-[4-[3-(4-fluorophenyl)-1H-pyrazol-4-yl]-2-pyrimidinyl]-1,4-pentanediamine]",290 nM,92%,41 nM and 60 nM and 40 nM,45%,"inhibition in vivo at 1 mg/kg (TNF-α; Table 9, dose 1 mg/kg): 6%"
"C[C@@H](O)CNc1cc(-c2c[nH]nc2-c2ccc(F)cc2)ccn1 [Example A-368, (2R)-1-[[4-[3-(4-fluorophenyl)-1H-pyrazol-4-yl]-2-pyridinyl]amino]-2-propanol]",660 nM,88%,42 nM,41%,"inhibition in vivo at 1 mg/kg (TNF-α; Table 9, dose 1 mg/kg): 28%"
"CCN(CC)CCCC(C)Nc1cc(-c2c[nH]nc2-c2ccc(Cl)cc2)ccn1 (centres unmarked) [Example A-369, N4-[4-[3-(4-chlorophenyl)-1H-pyrazol-4-yl]-2-pyridinyl]-N1,N1-diethyl-1,4-pentanediamine]",840 nM,94%,19 nM and 11 nM and 2.7 nM,52%,–
"C[C@H](O)CNc1cc(-c2c[nH]nc2-c2ccc(F)cc2)ccn1 [Example A-370, (2S)-1-[[4-[3-(4-fluorophenyl)-1H-pyrazol-4-yl]-2-pyridinyl]amino]-2-propanol]",1920 nM,90%,160 nM,46%,–
"CCOC(=O)N1CCN(c2[nH]nc(-c3ccccc3)c2-c2ccncc2)CC1 [Example A-371, ethyl 4-[5-phenyl-4-(4-pyridinyl)-1H-pyrazol-3-yl]-1-piperazinecarboxylate]",25000 nM,52%,7900 nM,–,–
"CCN(CC)CCNc1cc(-c2c[nH]nc2-c2ccc(F)cc2)ccn1 [Example A-374, N,N-diethyl-N′-[4-[3-(4-fluorophenyl)-1H-pyrazol-4-yl]-2-pyridinyl]-1,2-ethanediamine]",310 nM,88%,380 nM,0%,"inhibition in vivo at 1 mg/kg (TNF-α; Table 9, dose 1 mg/kg): 3%"
"OCC(Nc1cc(-c2c[nH]nc2-c2ccc(F)cc2)ccn1)c1ccccc1 (stereo not drawn) [Example A-376, (βR)-β-[[4-[3-(4-fluorophenyl)-1H-pyrazol-4-yl]-2-pyridinyl]amino]benzene ethanol]",1000 nM,24%,32 nM,–,–
"CCN(CC)CCCC(C)Nc1cc(-c2c[nH]nc2-c2ccc(F)cc2)ccn1 (centres unmarked) [Example A-377, N1,N1-diethyl-N4-[4-[3-(4-fluorophenyl)-1H-pyrazol-4-yl]-2-pyridinyl]-1,4-pentanediamine]",670 nM,84%,4 nM and 1.9 nM,67%,"inhibition in vivo at 1 mg/kg (TNF-α; Table 9, dose 1 mg/kg): 32%"
"CCN(CC)C1CCN(c2n[nH]c(-c3ccc(F)cc3)c2-c2ccncc2)CC1 [Example A-388, 1-[5-(4-fluorophenyl)-4-(4-pyridinyl)-1H-pyrazol-3-yl]-N,N-diethyl-4-piperidinamine, trihydrochloride]",340 nM,97%,210 nM,67%,–
Fc1ccc(-c2n[nH]c(N3CCSCC3)c2-c2ccncc2)cc1 [Example A-438],–,–,–,–,"IC50 (human TNF; Table 10, human whole blood): > 25000 nM; inhibition in vivo at 20 mg/kg (TNF-α; Table 10, dose 20.0 mg/kg): 49%; IC50 ([1]; Table 10, 10% DMSO, @ 1.0 hour): 560 nM"
